In the supplement of paper PMC10883282:

Columns and labels:
Assay in all cases: relative viability vs DMSO control (72 h) (fraction); higher = more viable cells
[1] = tested on: SK-LMS-1
Summary of the method: (§1)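 Sarcoma cell lines were grown in 384-well plates seeded toward 80–90% confluence and exposed 24 h later to serially diluted compound. After 72 h at 37 °C and 5% CO2, with 0.1% DMSO vehicle and a 5 µM positive control on the plates, ATPLite was read. Relative viability, given as percent growth averaged over up to triplicate wells, was rescaled so that 1 is full and 0 is none.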

[2] = tested on: G401
Summary of the method: as §1

[3] = tested on: RD-ES
Summary of the method: as §1

[4] = tested on: KHOS-NP
Summary of the method: as §1

[5] = tested on: SW872
Summary of the method: as §1

[6] = tested on: MES-SA
Summary of the method: as §1

[7] = tested on: VA-ES-BJ
Summary of the method: as §1

[8] = tested on: SW1353
Summary of the method: as §1

[9] = tested on: HT1080
Summary of the method: as §1

[10] = tested on: RD
Summary of the method: as §1

[11] = tested on: SW684
Summary of the method: as §1

[12] = tested on: SK-ES-1
Summary of the method: as §1

C[C@@H](Oc1cc(-c2cnn(C3CCNCC3)c2)cnc1N)c1c(Cl)ccc(F)c1Cl [Crizotinib]
Conditions	relative viability
[1], 0.00017 µM	1.03
[1], 0.00051 µM	1.02
[1], 0.00152 µM	1.01
[1], 0.00457 µM	1.01
[1], 0.01372 µM	0.996
[1], 0.04115 µM	0.921
[1], 0.1235 µM	0.641
[1], 0.3704 µM	0.571
[1], 1.111 µM	0.525
[1], 3.333 µM	0.335
[1], 10 µM	0.0176
[2], 0.00017 µM	1.01
[2], 0.00051 µM	0.995
[2], 0.00152 µM	1.01
[2], 0.00457 µM	1.01
[2], 0.01372 µM	1.01
[2], 0.04115 µM	1.01
[2], 0.1235 µM	0.9894
[2], 0.3704 µM	0.915
[2], 1.111 µM	0.745
[2], 3.333 µM	0.417
[2], 10 µM	0.000367
[3], 0.00017 µM	0.969
[3], 0.00051 µM	0.96
[3], 0.00152 µM	0.963
[3], 0.00457 µM	0.95
[3], 0.01372 µM	0.963
[3], 0.04115 µM	0.972
[3], 0.1235 µM	0.911
[3], 0.3704 µM	0.745
[3], 1.111 µM	0.26
[3], 3.333 µM	0.0918
[3], 10 µM	0.00543
[4], 0.00017 µM	1.11
[4], 0.00051 µM	1.107
[4], 0.00152 µM	1.09
[4], 0.00457 µM	1.11
[4], 0.01372 µM	1.1
[4], 0.04115 µM	1.1
[4], 0.1235 µM	1.103
[4], 0.3704 µM	1.103
[4], 1.111 µM	1.08
[4], 3.333 µM	0.974
[4], 10 µM	0.0806
[5], 0.00017 µM	1.06
[5], 0.00051 µM	1.07
[5], 0.00152 µM	1.09
[5], 0.00457 µM	1.06
[5], 0.01372 µM	1.08
[5], 0.04115 µM	1.09
[5], 0.1235 µM	1.014
[5], 0.3704 µM	0.921
[5], 1.111 µM	0.644
[5], 3.333 µM	0.463
[5], 10 µM	-0.00847
[6], 0.00017 µM	0.943
[6], 0.00051 µM	0.935
[6], 0.00152 µM	0.943
[6], 0.00457 µM	0.944
[6], 0.01372 µM	0.946
[6], 0.04115 µM	0.969
[6], 0.1235 µM	0.938
[6], 0.3704 µM	0.536
[6], 1.111 µM	0.434
[6], 3.333 µM	0.27
[6], 10 µM	-0.000833
[7], 0.00017 µM	1.06
[7], 0.00051 µM	1.05
[7], 0.00152 µM	1.06
[7], 0.00457 µM	1.06
[7], 0.01372 µM	1.04
[7], 0.04115 µM	0.975
[7], 0.1235 µM	0.899
[7], 0.3704 µM	0.764
[7], 1.111 µM	0.641
[7], 3.333 µM	0.505
[7], 10 µM	0.00337
[8], 0.00017 µM	1
[8], 0.00051 µM	1
[8], 0.00152 µM	1.018
[8], 0.00457 µM	0.987
[8], 0.01372 µM	1.02
[8], 0.04115 µM	0.996
[8], 0.1235 µM	1.03
[8], 0.3704 µM	1.01
[8], 1.111 µM	0.999
[8], 3.333 µM	0.679
[8], 10 µM	0.00907
[9], 0.00017 µM	1.07
[9], 0.00051 µM	1.05
[9], 0.00152 µM	1.07
[9], 0.00457 µM	1.09
[9], 0.01372 µM	1.07
[9], 0.04115 µM	1.07
[9], 0.1235 µM	1.06
[9], 0.3704 µM	1.07
[9], 1.111 µM	1.01
[9], 3.333 µM	0.754
[9], 10 µM	0.00533
[10], 0.00017 µM	1.08
[10], 0.00051 µM	1.07
[10], 0.00152 µM	1.106
[10], 0.00457 µM	1.09
[10], 0.01372 µM	1.1
[10], 0.04115 µM	1.1
[10], 0.1235 µM	1.09
[10], 0.3704 µM	0.88
[10], 1.111 µM	0.626
[10], 3.333 µM	0.441
[10], 10 µM	0.00437
[11], 0.00017 µM	1.16
[11], 0.00051 µM	1.19
[11], 0.00152 µM	1.17
[11], 0.00457 µM	1.23
[11], 0.01372 µM	1.21
[11], 0.04115 µM	1.22
[11], 0.1235 µM	1.17
[11], 0.3704 µM	1.09
[11], 1.111 µM	0.976
[11], 3.333 µM	0.737
[11], 10 µM	0.0253
[12], 0.00017 µM	1.03
[12], 0.00051 µM	1.01
[12], 0.00152 µM	1.05
[12], 0.00457 µM	1.052
[12], 0.01372 µM	1.06
[12], 0.04115 µM	1.03
[12], 0.1235 µM	0.979
[12], 0.3704 µM	0.673
[12], 1.111 µM	0.0655
[12], 3.333 µM	0.0452
[12], 10 µM	0.00363

COc1cc2ncnc(Nc3ccc(F)c(Cl)c3)c2cc1NC(=O)/C=C/CN1CCCCC1 [Dacomitinib]
Conditions	relative viability
[1], 0.00017 µM	1.11
[1], 0.00051 µM	1.11
[1], 0.00152 µM	1.11
[1], 0.00457 µM	1.13
[1], 0.01372 µM	1.09
[1], 0.04115 µM	1.08
[1], 0.1235 µM	1.04
[1], 0.3704 µM	1.03
[1], 1.111 µM	0.916
[1], 3.333 µM	0.701
[1], 10 µM	0.013
[2], 0.00017 µM	1.02
[2], 0.00051 µM	1.01
[2], 0.00152 µM	1.03
[2], 0.00457 µM	1.03
[2], 0.01372 µM	1.01
[2], 0.04115 µM	0.999
[2], 0.1235 µM	1.02
[2], 0.3704 µM	0.997
[2], 1.111 µM	0.849
[2], 3.333 µM	0.548
[2], 10 µM	0.00623
[3], 0.00017 µM	1.02
[3], 0.00051 µM	1.01
[3], 0.00152 µM	1.01
[3], 0.00457 µM	1.02
[3], 0.01372 µM	1.02
[3], 0.04115 µM	1.01
[3], 0.1235 µM	0.992
[3], 0.3704 µM	0.9359
[3], 1.111 µM	0.832
[3], 3.333 µM	0.474
[3], 10 µM	0.0093
[4], 0.00017 µM	1.09
[4], 0.00051 µM	1.09
[4], 0.00152 µM	1.1
[4], 0.00457 µM	1.09
[4], 0.01372 µM	1.08
[4], 0.04115 µM	1.086
[4], 0.1235 µM	1.08
[4], 0.3704 µM	1.08
[4], 1.111 µM	1.08
[4], 3.333 µM	0.985
[4], 10 µM	0.0233
[5], 0.00017 µM	1.1
[5], 0.00051 µM	1.12
[5], 0.00152 µM	1.1
[5], 0.00457 µM	1.11
[5], 0.01372 µM	1.11
[5], 0.04115 µM	1.08
[5], 0.1235 µM	1.05
[5], 0.3704 µM	1.03
[5], 1.111 µM	0.87
[5], 3.333 µM	0.508
[5], 10 µM	0.043
[6], 0.00017 µM	0.967
[6], 0.00051 µM	0.942
[6], 0.00152 µM	0.949
[6], 0.00457 µM	0.932
[6], 0.01372 µM	0.926
[6], 0.04115 µM	0.927
[6], 0.1235 µM	0.893
[6], 0.3704 µM	0.879
[6], 1.111 µM	0.731
[6], 3.333 µM	0.342
[6], 10 µM	0.00577
[7], 0.00017 µM	1.064
[7], 0.00051 µM	1.08
[7], 0.00152 µM	1.09
[7], 0.00457 µM	1.09
[7], 0.01372 µM	1.03
[7], 0.04115 µM	0.979
[7], 0.1235 µM	1.02
[7], 0.3704 µM	0.994
[7], 1.111 µM	0.914
[7], 3.333 µM	0.535
[7], 10 µM	-0.0076
[8], 0.00017 µM	1.06
[8], 0.00051 µM	1.05
[8], 0.00152 µM	1.02
[8], 0.00457 µM	0.9671
[8], 0.01372 µM	0.927
[8], 0.04115 µM	0.884
[8], 0.1235 µM	0.8331
[8], 0.3704 µM	0.764
[8], 1.111 µM	0.665
[8], 3.333 µM	0.401
[8], 10 µM	0.0104
[9], 0.00017 µM	1.12
[9], 0.00051 µM	1.11
[9], 0.00152 µM	1.11
[9], 0.00457 µM	1.11
[9], 0.01372 µM	1.08
[9], 0.04115 µM	1.12
[9], 0.1235 µM	1.12
[9], 0.3704 µM	1.13
[9], 1.111 µM	1.15
[9], 3.333 µM	0.769
[9], 10 µM	0.0364
[10], 0.00017 µM	1.103
[10], 0.00051 µM	1.09
[10], 0.00152 µM	1.12
[10], 0.00457 µM	1.141
[10], 0.01372 µM	1.13
[10], 0.04115 µM	1.12
[10], 0.1235 µM	1.12
[10], 0.3704 µM	1.08
[10], 1.111 µM	0.976
[10], 3.333 µM	0.347
[10], 10 µM	0.00617
[11], 0.00017 µM	1.22
[11], 0.00051 µM	1.23
[11], 0.00152 µM	1.208
[11], 0.00457 µM	1.18
[11], 0.01372 µM	1.18
[11], 0.04115 µM	1.15
[11], 0.1235 µM	1.22
[11], 0.3704 µM	1.08
[11], 1.111 µM	1.01
[11], 3.333 µM	0.599
[11], 10 µM	-0.00213
[12], 0.00017 µM	1.04
[12], 0.00051 µM	1.1
[12], 0.00152 µM	1.04
[12], 0.00457 µM	1.07
[12], 0.01372 µM	1.07
[12], 0.04115 µM	1.04
[12], 0.1235 µM	1.02
[12], 0.3704 µM	1.01
[12], 1.111 µM	0.662
[12], 3.333 µM	0.184
[12], 10 µM	0.00867
